Key:
Protein AF-9 [1] = target: T1, Protein AF-9 (Homo sapiens, UniProt P42568); assay: Inhibition of AF9 YEATS domain (1 to 138 residues) (unknown origin) assessed as inhibition of probe-1 induced AF9 YEATS domain labelling incubated for 10 mins followed by UV-irradiation for 20 mins by Photo-cross linking based In-gel fluorescence scanning analysis
T1 sequence (P42568 whole entry): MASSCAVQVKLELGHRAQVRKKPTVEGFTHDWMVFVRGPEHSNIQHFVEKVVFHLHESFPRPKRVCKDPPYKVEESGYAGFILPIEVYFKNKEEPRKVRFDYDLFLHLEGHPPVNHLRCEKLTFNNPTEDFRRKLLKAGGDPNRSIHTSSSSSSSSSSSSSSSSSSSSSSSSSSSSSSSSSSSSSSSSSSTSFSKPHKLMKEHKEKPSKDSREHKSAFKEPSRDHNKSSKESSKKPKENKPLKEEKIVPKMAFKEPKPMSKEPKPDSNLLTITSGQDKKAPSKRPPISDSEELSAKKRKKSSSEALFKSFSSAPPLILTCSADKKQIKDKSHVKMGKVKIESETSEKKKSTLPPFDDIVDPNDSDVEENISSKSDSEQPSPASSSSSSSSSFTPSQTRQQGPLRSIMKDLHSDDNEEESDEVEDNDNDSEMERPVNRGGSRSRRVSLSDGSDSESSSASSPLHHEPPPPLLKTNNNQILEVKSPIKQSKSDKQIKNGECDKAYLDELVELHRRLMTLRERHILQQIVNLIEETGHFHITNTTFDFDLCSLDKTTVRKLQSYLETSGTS

Protein AF-9 [2] = target: T1, Protein AF-9; assay: Binding affinity to AF9 YEATS domain (1 to 138 residues) (unknown origin) by isothermal titration calorimetry

SMILES | IC50 (Protein AF-9 [1]) | Kd (Protein AF-9 [2])
CC(=O)N[C@@H](Cc1ccc(O)cc1)C(=O)NCC(=O)N[C@@H](CCCNC(=N)N)C(=O)N[C@@H](CCCCN)C(=O)N[C@@H](CCCCN)C(=O)N[C@@H](CCCNC(=N)N)C(=O)N[C@@H](CCCNC(=N)N)C(=O)N[C@@H](CCC(N)=O)C(=O)N[C@@H](CCCNC(=N)N)C(=O)N[C@@H](CCCNC(=N)N)C(=O)N[C@@H](CCCNC(=N)N)C(=O)NCCCC[C@@H]1NC(=O)[C@H]([C@@H](C)O)NC(=O)[C@@H](NC(=O)OCc2ccccc2)CCCCNC(=N)NCCC[C@@H](C(=O)N[C@@H](CCCCNC(=O)c2cnco2)C(N)=O)NC1=O | 1740 nM | 800 nM
C[C@@H]1NC(=O)[C@H]([C@H](C)O)NC(=O)[C@@H](NC(=O)OCc2ccccc2)CCCCNC(=N)NCCC[C@H](C(=O)N[C@@H](CCCCNC(=O)c2cnco2)C(N)=O)NC1=O | 410 nM | 370 nM

From ChEMBL document CHEMBL4834482, “Concise solid-phase synthesis enables derivatisation of YEATS domain cyclopeptide inhibitors for improved cellular uptake” (Bioorg Med Chem, 2021)
